Experimental data from US4302448A, “Secretin preparations with intensified and protracted action, process for their manufacture, their use as well as dihydroxybenzoyl-L-tyrosine” (Hoechst Aktiengesellschaft, priority 1979, dated 1981).
Where a SMILES comes first, the peptide text is derived from it. Side-chain parts run from the residue outwards. [ ]: non-standard residue; d: D form. The star is where a group is joined. Cbz = O=C(OCc1ccccc1)*

Test system: Pancreatic juice secretion of the rat
Test: Pancreatic juice secretion of the rat after subcutaneous administration of secretin with depot bodies
Assay type: in vivo
Settings: rat, subcutaneous, 5 CU/kg secretin + 10 mg depot body/animal; for Δ% vs. control (percentage by which the pancreatic secretion is above the basal secretion after 5 hours): control=100%, measure of depot effect; for Rel. Intensity of effect over 5 hours (total pancreatic juice secretion over 5 hours as compared with control): control (0.9% of NaCl)=1
Protocol: Secretin preparations for subcutaneous application which contained the depot bodies specified in the following Table were tested in animal experiments. In the experimental procedure chosen, 5 to 8 male rats weighing 300 to 500 g each are administered subcutaneously 5 CU/kg of secretin (CU means clinical unit) and 10 mg of the depot body to be tested each in aqueous solution or suspension.
The animals remain without food for 18 hours prior to the test, but they are given water ad libitum. Under urethane anaesthesia (5 ml/kg i.m. of 25% urethane) the abdomen is opened by median section after tracheotomy, and the pylorus is ligated. The ductus choledochus is tied off in its proximal part near the porta hepatis, and the bile is led into the duodenum via a polyethylene tube of a diameter of […]. A cannula or catheter is inserted into the distal part of the bile duct, into which the numerous pancreatic ducts open, immediately before it opens into the duodenum, and the volume of the secretion running off is measured in 60 minute intervals. Following a preliminary run of 60 minutes the preparations are administered.
L means the compound known from literature and characterized by the melting point, optionally UV, IR or NMR. A to C relate to the preparation according to Example 1, process A to C. These compounds were characterized by ultimate analysis. The third column indicates the percentage by which the pancreatic secretion is above the basal secretion after 5 hours (calculated on the control=100%). This value is a measure for the depot effect of the depot body tested. Column 4 indicates the intensification of the secretin effect, with the total pancreatic juice secretion having been given over 5 hours as compared with the control (0.9% of NaCl)=1.

Row | Compound | Δ% vs. control (percentage by which the pancreatic secretion is above the basal secretion after 5 hours) [%] | Rel. Intensity of effect over 5 hours (total pancreatic juice secretion over 5 hours as compared with control)
1 | O=C(NCCN(CCN(CCNC(=O)c1cc(O)cc(O)c1)C(=O)c1cc(O)cc(O)c1)C(=O)c1cc(O)cc(O)c1)c1cc(O)cc(O)c1 [Tetra-(3,5-dihydroxybenzoyl)-triethylene-tetramine] | 101 | 9.7
2 | CC(=O)c1ccc(O)cc1O [2,4-Dihydroxy-acetophenone] | 70 | 6.1
3 | O=C(O)c1ccc(O)cc1 [4-Hydroxybenzoic acid] | 38 | 3.8
4 | O=S(=O)(c1ccc(O)cc1)c1ccc(O)cc1 [4,4'-Dihydroxy-diphenyl sulfone] | 74 | 6.2
5 | Bis-(2,4-dihydroxybenzoyl-L-tyrosine)-diaminoethane | 82 | 6.0
6 | CC(=O)c1ccc(O)cc1 [4-Hydroxyacetophenone] | 43 | 8.1
7 | Oc1cc(O)cc(O)c1 [Phloroglucine] | 15 | 6.6
8 | COC(=O)[C@H](Cc1ccc(O)cc1)NC(=O)c1ccc(O)cc1O [2,4-Dihydroxybenzoyl-L-tyrosine-methyl ester] | 70 | 7.8
9 | O=C(c1ccc2ccccc2c1O)N(CCO)CCO [1-Hydroxy-2-naphthoic acid-diethanolamide] | 79 | 8.1
10 | O=C(c1ccccc1)c1cccc(O)c1 [3-Hydroxy-benzophenone] | 79 | 8.0
11 | O=C(O)c1ccccc1O [2-Hydroxy-benzoic acid] | 6 | 4.5
12 | O=C(N[C@@H](Cc1ccc(O)cc1)C(=O)O)OCc1ccccc1 [Benzyloxycarbonyl-L-tyrosine] | 7 | 5.9
13 | O=C(N[C@@H](Cc1ccc(O)cc1)C(=O)NCCN(CCN(CCNC(=O)[C@H](Cc1ccc(O)cc1)NC(=O)c1cc(O)cc(O)c1)C(=O)[C@H](Cc1ccc(O)cc1)NC(=O)c1cc(O)cc(O)c1)C(=O)[C@H](Cc1ccc(O)cc1)NC(=O)c1cc(O)cc(O)c1)c1cc(O)cc(O)c1 [Tetra-(3,5-dihydroxybenzoyl-L-tyrosyl)-triethylene-tetramine] | 98 | 9.5
14 | O=C(c1ccc(O)cc1O)c1ccc(O)cc1O [2,2'-4,4'-Tetrahydroxybenzophenone] | 58 | 4.8
15 | O=C(N[C@@H](Cc1ccc(O)cc1)C(=O)NCCCC[C@@H](NC(=O)[C@H](Cc1ccc(O)cc1)NC(=O)OCc1ccccc1)C(=O)O)OCc1ccccc1 [Nα,Nε-Bis-(benzyloxycarbonyl-L-tyrosyl)-D-lysine] (Cbz-Tyr-[dK]([Tyr-Cbz])-OH) | 13 | 1.5
16 | Bis-(2,4-dihydroxybenzoyl)-1,4-diaminobutane | 83 | 6.7
17 | O=C(NCc1ccccc1)c1ccc(O)cc1O [2,4-Dihydroxybenzoic acid-benzylamide] | 64 | 6.8
18 | O=C(NCCN(CCN(CCNC(=O)c1c(O)cccc1O)C(=O)c1c(O)cccc1O)C(=O)c1c(O)cccc1O)c1c(O)cccc1O [Tetra-(2,6-dihydroxybenzoyl)-triethylene-tetramine] | 78 | 8.1

Row | Compound | Δ% vs. control (percentage by which the pancreatic secretion is above the basal secretion after 5 hours) [%] | Rel. Intensity of effect over 5 hours (total pancreatic juice secretion over 5 hours as compared with control)
19 | O=C(O)c1ccc(O)cc1O [2,4-Dihydroxybenzoic acid] | 28 | 7.1
20 | NC(=O)[C@H](CCCCNC(=O)[C@H](Cc1ccc(O)cc1)NC(=O)OCc1ccccc1)NC(=O)[C@H](Cc1ccc(O)cc1)NC(=O)OCc1ccccc1 [Nα,Nε-Bis-(benzyloxycarbonyl-L-tyrosyl)-L-lysine-amide] (Cbz-Tyr-Lys([Tyr-Cbz])-NH2) | 90 | 8.4
21 | CC(=O)c1cccc(O)c1 [3-Hydroxy-acetophene] | 54 | 9.0
22 | Bis-(3-benzoylpropionyl-L-tyrosine)-diaminoethane | 60 | 3.7
23 | Bis-(3,5-dihydroxybenzoyl)-1,4-diaminobutane | 85 | 7.4
24 | Bis-phloretin phosphate | 56 | 2.5
25 | O=C(CO)c1ccccc1 [2-Hydroxyacetophenone] | 38 | 7.6
26 | O=C(N[C@@H](Cc1ccc(O)cc1)C(=O)N(CCO)CCO)c1ccc(O)cc1O [2,4-Dihydroxybenzoyl-L-tyrosine-diethanolamide] | 47 | 8.7
27 | O=C(NCCN(CCN(CCNC(=O)c1cccc(O)c1)C(=O)c1cccc(O)c1)C(=O)c1cccc(O)c1)c1cccc(O)c1 [Tetra-(3-hydroxybenzoyl-)triethylene-tetramine] | 95 | 9.1
28 | O=C(CCc1ccc(O)cc1)c1c(O)cc(O)cc1O [Phloretin] | 180 | 8.2
29 | Oc1cccc(O)c1 [Resorcinol] | 55 | 6.1
30 | Oc1cccc(O)c1O [Pyrogallol] | 41 | 5.1
31 | Bis-(2-hydroxybenzoyl)-diaminoethane | 72 | 5.9
32 | COC(=O)c1ccc(O)cc1 [4-Hydroxy-benzoic acid-methyl-ester] | 15 | 5.3
33 | Phloretin-3,5-dimethylphenyl phosphate | 68 | 3.7
34 | O=C(Nc1cccc(O)c1)c1cc(O)cc(O)c1 [3,5-Dihydroxybenzoic acid-3-hydroxy-anilide] | 49 | 6.2
35 | O=C(O)c1cc(O)nc2ccccc12 [2-Hydroxy-quinoline-4-carboxylic acid] | 5 | 5.0
36 | CCCCNC(=O)[C@H](Cc1ccc(O)cc1)NC(=O)c1ccc(O)cc1O [2,4-Dihydroxybenzoyl-L-tyrosine-n-butylamide] | 87 | 8.7
